Values joined by “and” are separate entries in the source; they are usually repeats but may differ in a detail not shown here. Equal values may be shown once.
Key:
[1] = tested on: invasion of colorectal cancer cells; assay: In vivo relative invation (invasion; EV and KITENIN controls, no method described); conditions: relative to EV (=1); KIT = KITENIN
KAI1 promoter = KAI1 promoter luciferase reporter assay in transfected Caco2 cells; assay type: cell-based, human; conditions: Homo sapiens, Caco-2, 16 h, 1 μM compound, 16 hours, transfected Caco2 cells, luciferase activity relative to DMSO control (=1); read-out: Relative KAI promoter activity
Procedure: Experiments were conducted to evaluate the metastasis-related promoter activity-increasing effects of the compounds according to the present invention. Specifically, the KAI1 promoter reporter vector was used. In this case, the pRL-TK vector, a vector expressing renilla luciferase, was used as an internal control indicating the transfection efficiency in each transfected well.
First, 24 hours before transfection, 2×10^6 human colon cancer cell line, Caco2) cells were cultured in 10 ml of DMEM containing 10% FBS and 1% penicillin/streptomycin on a 100-mm-diameter plate, and then transformed with 5 μg of a pRL-TK vector mixture containing a transfection reagent and the KAI1 promoter, and then cultured in a 5% CO2 incubator at 37° C. for 48 hours. Thereafter, the adherent cells were detached using trypsin and counted using a hemacytometer, and then 5×10^3 transfected Caco2 cells in 100 μl of DMEM containing 10% FBS and 1% penicillin/streptomycin were seeded into each well of a 96-well plate and cultured in a 5% CO2 incubator at 37° C. for 24 hours. Next, 1 μM of each of the 305 compounds prepared in Examples 1 to 305 was added to each well, and after 16 hours, 100 μl of a lysis buffer for analysis containing a luciferase substrate was added, and the cells were lysed with stirring for 20 minutes. After completion of lysis, the cells were measured for luciferase activity using a luciferase reporter assay system (Promega, USA). […] In addition, data were analyzed at a significance level of p<0.05 by one-way ANOVA (Tukey's HSD), and SPSS 17.0 (Chicago, USA) statistical program was used. In Table 14 to 20, PHA is the PHA-665752, and KIT is KITENIN.

Row | Molecule | In vivo relative invation [1] | fold induction at 1 µM (KAI1 promoter)
1 | O=C(CNC(=O)c1ccccc1OC1CCN(C(=O)N2CCOCC2)CC1)c1ccccc1 [Example 171, 2-((1-(morpholine-4-carbonyl)piperidin-4-yl)oxy)-N-(2-oxo-2-phenylethyl)benzamide] | 1.191 | 1.07
2 | CCC(=O)NCC(=O)c1ccc(N2CCOCC2)cc1 [Example 142, N-(2-(4-morpholinophenyl)-2-oxoethyl)propionamide] | 1.8 | 1.12
3 | O=C(CNC(=O)c1cccc(OC(F)(F)F)c1)c1ccccc1 [Example 39, N-(2-oxo-2-phenylethyl)-3-(trifluoromethoxy)benzamide] | 0.5984 | 1.21
4 | CCCCN(CC)Cc1ccc(C(=O)NCC(=O)c2ccccc2)cc1 [Example 273, 4-((butyl(ethyl)amino)methyl)-N-(2-oxo-2-phenylethyl)benzamide] | 1.171 | 1.2
5 | O=C(CNC(=O)c1ccccc1OC1CCN(C(=O)c2cccc(Cl)c2)CC1)c1ccccc1 [Example 157, 2-((1-(3-chlorobenzoyl)piperidin-4-yl)oxy)-N-(2-oxo-2-phenylethyl)benzamide] | 1.089 | 1.05
6 | C=CC(=O)NCC(=O)c1ccccc1 [Example 10, N-(2-oxo-2-phenylethyl) acrylamide] | 0.9099 | 1.08
7 | O=C(COc1ccccc1C(=O)NCC(=O)c1ccccc1)Nc1ccccc1 [Example 201, 2-(2-oxo-2-(phenylamino)ethoxy)-N-(2-oxo-2-phenylethyl)benzamide] | 0.9283 | 1.46
8 | O=C(COc1ccccc1C(=O)NCC(=O)c1ccccc1)Nc1ccccc1Cl [Example 224, 2-(2-((2-chlorophenyl)amino)-2-oxoethoxy)-N-(2-oxo-2-phenylethyl)benzamide] | 1.25 | 1.13
9 | O=C(CNC(=O)c1ccccc1OCC(=O)N1CCc2ccccc2C1)c1ccccc1 [Example 227, 2-(2-(3,4-dihydroisoquinolin-2 (1H)-yl)-2-oxoethoxy)-N-(2-oxo-2-phenylethyl)benzamide] | 1.153 | 1.01
10 | O=C(CNC(=O)c1ccc(F)cc1)c1ccc(Cl)cc1 [Example 45, N-(2-(4-chlorophenyl)-2-oxoethyl)-4-fluorobenzamide] | 1.476 | 0.84
11 | O=C(CNC(=O)c1ccccc1OC1CCN(C(=O)c2cccs2)CC1)c1ccccc1 [Example 168, N-(2-oxo-2-phenylethyl)-2-((1-(thiophene-2-carbonyl)piperidin-4-yl)oxy)benzamide] | 1.199 | 1.05
12 | O=C(CNS(=O)(=O)Cc1ccccc1)c1ccc(Cl)cc1 [Example 70, N-(2-(4-chlorophenyl)-2-oxoethyl)-1-phenylmethanesulfonamide] | 1.274 | 0.81
13 | O=C(CNC(=O)c1cccc(CN2CCN(c3ncccn3)CC2)c1)c1ccccc1 [Example 235, N-(2-oxo-2-phenylethyl)-3-((4-(pyrimidin-2-yl)piperazin-1-yl)methyl)benzamide] | 1.133 | 1.44
14 | COc1ccc(C(=O)NCC(=O)c2ccc(N(C)C)cc2)cc1 [Example 97, N-(2-(4-(dimethylamino)phenyl)-2-oxoethyl)-4-methoxybenzamide] | 1.024 | 1.8
15 | Cc1ccccc1NC(=O)COc1ccccc1C(=O)NCC(=O)c1ccccc1 [Example 202, 2-(2-oxo-2-(o-toylamino)ethoxy)-N-(2-oxo-2-phenylethyl)benzamide] | 1.138 | 1.31
16 | O=C(CNC(=O)C1CC1)c1ccc(N2CCOCC2)cc1 [Example 143, N-(2-(4-morpholinophenyl)-2-oxoethyl)cyclopropanecarboxamide] | 0.8028 | 1.16
17 | O=C(CNC(=O)c1cc(Cl)cc(Cl)c1)c1ccc(Cl)cc1 [Example 79, 3,5-dichloro-N-(2-(4-chlorophenyl)-2-oxoethyl)benzamide] | 1.102 | 1.03
18 | O=C(CNC(=O)c1cc(C(F)(F)F)cc(C(F)(F)F)c1)c1ccc(Cl)cc1 [Example 72, N-(2-(4-chlorophenyl)-2-oxoethyl)-3,5-bis(trifluoromethyl)benzamide] | 1.044 | 0.8
19 | CN(C)c1ccc(C(=O)CNS(=O)(=O)c2ccc(Cl)cc2)cc1 [Example 108, 4-chloro-N-(2-(4-(dimethylamino)phenyl)-2-oxoethyl)benzenesulfonamide] | 0.989 | 1.36
20 | CCCCN(CC)Cc1cccc(C(=O)NCC(=O)c2ccccc2)c1 [Example 249, 3-((butyl(ethyl)amino)methyl)-N-(2-oxo-2-phenylethyl)benzamide] | 1.113 | 1.35
21 | O=C(CNS(=O)(=O)Cc1ccccc1)c1ccccc1 [Example 28, N-(2-oxo-2-phenylethyl)-1-phenylmethanesulfonamide] | 1.057 | 1.02
22 | O=C(CNC(=O)c1ccccc1C(F)(F)F)c1ccc(Cl)cc1 [Example 73, N-(2-(4-chlorophenyl)-2-oxoethyl)-2-(trifluoromethyl)benzamide] | 1.116 | 0.99
23 | O=C(CNC(=O)c1cccc(Cl)c1Cl)c1ccccc1 [Example 37, 2,3-dichloro-N-(2-oxo-2-phenylethyl)benzamide] | 0.9648 | 1.17
24 | CCCCCN(CCCCC)Cc1cccc(C(=O)NCC(=O)c2cccc(OC)c2)c1 [Example 291, 3-((dipentylamino)methyl)-N-(2-(3-methoxyphenyl)-2-oxoethyl)benzamide] | 1.126 | 1.62
25 | O=C(CNC(=O)c1ccccc1OC(F)(F)F)c1ccccc1 [Example 41, N-(2-oxo-2-phenylethyl)-2-(trifluoromethoxy)benzamide] | 0.7565 | 1.19
26 | COCc1ccccc1C(=O)N1CCC(Oc2ccccc2C(=O)NCC(=O)c2ccccc2)CC1 [Example 169, 2-((1-(2-(methoxymethyl)benzoyl)piperidin-4-yl)oxy)-N-(2-oxo-2-phenylethyl)benzamide] | 1.186 | 0.99
27 | O=C(CNC(=O)c1ccco1)c1ccc(Cl)cc1 [Example 46, N-(2-(4-chlorophenyl)-2-oxoethyl)furan-2-carboxamide] | 1.181 | 0.98
28 | O=C(COc1ccccc1C(=O)NCC(=O)c1ccccc1)Nc1cccc(Br)c1 [Example 225, 2-(2-((3-bromophenyl)amino)-2-oxoethoxy)-N-(2-oxo-2-phenylethyl)benzamide] | 1.235 | 1.35
29 | Cc1[nH]c(/C=C2\C(=O)Nc3ccc(S(=O)(=O)Cc4c(Cl)cccc4Cl)cc32)c(C)c1C(=O)N1CCC[C@@H]1CN1CCCC1 [PHA, PHA-665752, reference compound] |  | 1.43
30 | KITENIN | 1.419 and 1.156 and 1.58 and 1.288 and 1.205 and 1.369 | 

Source: patent US20230150924A1, “NOVEL COMPOUND HAVING CANCER METASTASIS INHIBITORY ACTIVITY, PREPARATION METHOD THEREFOR, AND PHARMACEUTICAL COMPOSITION FOR INHIBITING CANCER METASTASIS AND INVASION OR TREATING COLORECTAL CANCER, COMPRISING COMPOUND” (CELLGENTEK CO., LTD., priority 2019, published 2023)
